The first experiment deals with parasites (ring stage, in human red blood cell culture). Put plainly: Parasite LDH growth assay (antiparasite potency, Parasite Assay). The class given is cell-based, Plasmodium falciparum. Particulars: 0.7% rings, 2% haematocrit, 72 hours at 37° C., LDH readout of parasite growth. Summed up:
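Ring-stage parasites at 0.7% parasitemia and 2% haematocrit, in RPMI-Hepes/bicarbonate with 5% heat-inactivated human serum and 0.5% albumax, were added to compound-containing medium. Cultures grew 72 h at 37 °C in gassed humidified boxes. Plates were then frozen overnight at −80 °C, thawed 4 h, and growth was measured by LDH assay.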
For orientation: EC50 means the concentration at which the effect is half-maximal. As for `CCC1(CC)CC(=O)N(C2c3cc(C(=O)N[C@@H]4c5ccccc5C[C@H]4O)ccc3OC2(C)C)C(=N)N1` (stereo partly drawn) [Example 127B, 3-(4,4-diethyl-2-imino-6-oxo-hexahydropyrimidin-1-yl)-N-[(1R,2R)-2-hydroxyindan-1-yl]-2,2-dimethyl-3H-benzofuran-5-carboxamide], the EC50 was determined as 222 nM. This counts as sub-micromolar.
On to `CCC1(CC)CC(=O)N([C@H]2c3cc(C(=O)N[C@@H]4c5ccccc5C[C@H]4O)ccc3CC2OC)C(=N)N1` (stereo partly drawn) [Example 140B, (3S)-3-(4,4-diethyl-2-imino-6-oxo-hexahydropyrimidin-1-yl)-N-[(1R,2R)-2-hydroxyindan-1-yl]-2-methoxy-indane-5-carboxamide], for which the EC50 is 1.7 nM.

The experiment is the same for the next values; noted with them: Plasmodium falciparum, Erythrocyte, 72 h, 0.7% rings, 2% haematocrit, 72 hours at 37° C., LDH readout of parasite growth.
In turn, `CCC1(CC)CC(=O)N([C@@H]2C[C@@H](C)Oc3ccc(C(=O)N[C@@H]4c5ccccc5C[C@H]4O)cc32)C(=N)N1` [Example 128, (2R,4R)-4-(4,4-diethyl-2-imino-6-oxo-hexahydropyrimidin-1-yl)-N-[(1R,2R)-2-hydroxyindan-1-yl]-2-methyl-chromane-6-carboxamide] displayed an EC50 of 2.8 nM. In other words, the single-digit nanomolar range.
Turning to `CC[C@]1(C)CC(=O)N([C@@H]2C[C@@H](C)Oc3ccc(C(=O)N[C@@H]4c5ccccc5C[C@@]4(C)O)cc32)C(=N)N1` [Example 129, (2R,4R)-4-[(4R)-4-ethyl-2-imino-4-methyl-6-oxo-hexahydropyrimidin-1-yl]-N-[(1R,2R)-2-hydroxy-2-methyl-indan-1-yl]-2-methyl-chromane-6-carboxamide], the half-maximal effective concentration (EC50) came out at 3.5 nM.
Still for that read-out and setting: then `CC[C@]1(C)CC(=O)N([C@@H]2C[C@@H](C)c3ccc(C(=O)N[C@@H]4c5ccccc5OC[C@]4(C)O)cc32)C(=N)N1` [Example 130, (1R,3R)-3-[(4R)-4-ethyl-2-imino-4-methyl-6-oxo-hexahydropyrimidin-1-yl]-N-[(3R,4R)-3-hydroxy-3-methyl-chroman-4-yl]-1-methyl-indane-5-carboxamide], with 2.1 nM.
As to `CC[C@]1(C)CC(=O)N([C@@H]2C[C@@H](C)c3ccc(C(=O)N[C@@H]4c5ccccc5OC[C@@]4(C)O)cc32)C(=N)N1` [Example 131, (1R,3R)-3-[(4R)-4-ethyl-2-imino-4-methyl-6-oxo-hexahydropyrimidin-1-yl]-N-[(3S,4R)-3-hydroxy-3-methyl-chroman-4-yl]-1-methyl-indane-5-carboxamide], the response was half-maximal at 2 nM (EC50).
On the same count and under the same terms, then `CCC1(CC)CC(=O)N([C@@H]2CCCOc3ccc(C(=O)N[C@@H]4c5ccccc5C[C@H]4O)cc32)C(=N)N1` [Example 132, (5R)-5-(4,4-diethyl-2-imino-6-oxo-hexahydropyrimidin-1-yl)-N-[(1R,2R)-2-hydroxyindan-1-yl]-2,3,4,5-tetrahydro-1-benzoxepine-7-carboxamide], with 1.6 nM; and `CC1(C)CC(=O)N(C2c3cc(C(=O)N[C@H]4CC(C)(C)Oc5ccccc54)ccc3OC2(C)C)C(=N)N1` (stereo partly drawn) [Example 134, N-[(4S)-2,2-dimethylchroman-4-yl]-3-(2-imino-4,4-dimethyl-6-oxo-hexahydropyrimidin-1-yl)-2,2-dimethyl-3H-benzofuran-5-carboxamide], with 8.8 nM.
Turning to `C[C@@H]1Cc2ccc(C(=O)N[C@@H]3c4ccccc4OC(C)(C)[C@H]3O)cc2[C@@H]1N1C(=N)NC(C)(C)CC1=O` [Example 135, (2R,3R)-N-[(3S,4R)-3-hydroxy-2,2-dimethyl-chroman-4-yl]-3-(2-imino-4,4-dimethyl-6-oxo-hexahydropyrimidin-1-yl)-2-methyl-indane-5-carboxamide], the EC50 is 0.9 nM.
For the molecule `C[C@H]1Cc2ccc(C(=O)N[C@@H]3c4ccccc4OC(C)(C)[C@H]3O)cc2[C@@H]1N1C(=N)NC(C)(C)CC1=O` [Example 136, (2S,3R)-N-[(3S,4R)-3-hydroxy-2,2-dimethyl-chroman-4-yl]-3-(2-imino-4,4-dimethyl-6-oxo-hexahydropyrimidin-1-yl)-2-methyl-indane-5-carboxamide], the EC50 was 1.3 nM. This EC50 and that of the molecule before are within 1.5-fold of each other.
Still for that read-out and setting: then `C[C@H]1Cc2ccc(C(=O)N[C@@H]3c4ccccc4OC(C)(C)[C@H]3O)cc2[C@H]1N1C(=N)NC(C)(C)CC1=O` [Example 137, (2S,3S)-N-[(3S,4R)-3-hydroxy-2,2-dimethyl-chroman-4-yl]-3-(2-imino-4,4-dimethyl-6-oxo-hexahydropyrimidin-1-yl)-2-methyl-indane-5-carboxamide], with 239 nM; and `C[C@@H]1C[C@@H](N2C(=N)NC(C)(C)CC2=O)c2cc(C(=O)N[C@@H]3c4ccccc4OC(C)(C)[C@H]3O)ccc21` [Example 138, (1R,3R)-N-[(3S,4R)-3-hydroxy-2,2-dimethyl-chroman-4-yl]-3-(2-imino-4,4-dimethyl-6-oxo-hexahydropyrimidin-1-yl)-1-methyl-indane-5-carboxamide], with 0.9 nM.
As for `C[C@H]1C[C@H](N2C(=N)NC(C)(C)CC2=O)c2cc(C(=O)N[C@@H]3c4ccccc4OC(C)(C)[C@H]3O)ccc21` [Example 139, (1S,3S)-N-[(3S,4R)-3-hydroxy-2,2-dimethyl-chroman-4-yl]-3-(2-imino-4,4-dimethyl-6-oxo-hexahydropyrimidin-1-yl)-1-methyl-indane-5-carboxamide], the 50% effective concentration (EC50) was 180 nM.
For the molecule `CCC1(CC)CC(=O)N([C@H]2c3cc(C(=O)N[C@@H]4c5ccccc5C[C@H]4O)ccc3CC2OC)C(=N)N1` (stereo partly drawn) [Example 140A, (3S)-3-(4,4-diethyl-1-imino-6-oxo-hexahydroyrimidin-1-yl)-N-[(1R,2R)-2-hydroxyindan-1-yl]-2-methoxy-indane-5-carboxamide], the EC50 is 1.4 nM.
`CC[C@]1(C)CC(=O)N([C@@H]2CCOc3ccc(C(=O)N[C@@H]4c5ccccc5OC[C@H]4OC)cc32)C(=N)N1` [Example 141, (4R)-4-[(4R)-4-ethyl-2-imino-4-methyl-6-oxo-hexahydropyrimidin-1-yl]-N-[(3S,4R)-3-methoxychroman-4-yl]chromane-6-carboxamide] had an EC50 of 8.4 nM.
Regarding `COC1COc2ccc(C(=O)N[C@@H]3c4ccccc4C[C@]3(C)O)cc2C1N1C(=N)NC(C)(C)CC1=O` (stereo partly drawn) [Example 142, N-[(1R,2S)-2-hydroxy-2-methyl-indan-1-yl]-4-(2-imino-4,4-dimethyl-6-oxo-hexahydropyrimidin-1-yl)-3-methoxy-chromane-6-carboxamide], the EC50 was 98.5 nM.
`COC1COc2ccc(C(=O)N[C@@H]3c4ccccc4C[C@@]3(C)O)cc2C1N1C(=N)NC(C)(C)CC1=O` (stereo partly drawn) [Example 143, N-[(1R,2R)-2-hydroxy-2-methyl-indan-1-yl]-4-(1-imino-4,4-dimethyl-6-oxo-hexahydropyrimidin-1-yl)-3-methoxy-chromane-6-carboxamide] came in with an EC50 of 178 nM.
`CC1(C)CC(=O)N(C2c3cc(C(=O)N[C@H]4CC(C)(C)Oc5ccccc54)ccc3OCC2O)C(=N)N1` (stereo partly drawn) [Example 144, N-[(4S)-2,2-dimethylchroman-4-yl]-3-hydroxy-4-(2-imino-4,4-dimethyl-6-oxo-hexahydropyrimidin-1-yl)chromane-6-carboxamide] showed an EC50 of 194 nM.
`CC[C@]1(C)CC(=O)N(C2c3cc(C(=O)N[C@@H]4c5ccccc5C[C@H]4O)ccc3OCC2OC)C(=N)N1` (stereo partly drawn) [Example 145, 4-[(4R)-4-ethyl-2-imino-4-methyl-6-oxo-hexahydropyrimidin-1-yl]-N-[(1R,2R)-2-hydroxyindan-1-yl]-3-methoxy-chromane-6-carboxamide] showed a concentration giving a half-maximal response (EC50) of 40.8 nM.
For `COCC1(C)Oc2ccc(C(=O)N[C@@H]3c4ccccc4C[C@H]3O)cc2C1N1C(=N)NC(C)(C)CC1=O` (stereo partly drawn) [Example 146, N-[(1R,2R)-2-hydroxyindan-1-yl]-3-(2-imino-4,4-dimethyl-6-oxo-hexahydropyrimidin-1-yl)-2-(methoxymethyl)-2-methyl-3H-benzofuran-5-carboxamide], the half-maximal effective concentration (EC50) turned out to be 35.5 nM.
Still for that read-out and setting: then `CCC1(CC)CC(=O)N([C@@H]2CCOc3ccc(C(=O)N[C@H]4c5cc(F)ccc5C[C@@H]4O)cc32)C(=N)N1` [Example 147, (4R)-4-(4,4-diethyl-2-imino-6-oxo-hexahydropyrimidin-1-yl)-N-[(1S,2S)-6-fluoro-2-hydroxy-indan-1-yl]chromane-6-carboxamide], with 160 nM.
The molecule `CCC1(CC)CC(=O)N([C@@H]2CCOc3ccc(C(=O)N[C@@H]4c5cc(F)ccc5C[C@H]4O)cc32)C(=N)N1` [Example 148, (4R)-4-(4,4-diethyl-2-imino-6-oxo-hexahydropyrimidin-1-yl)-N-[(1R,2R)-6-fluoro-2-hydroxy-indan-1-yl]chromane-6-carboxamide] came in with an EC50 of 2.7 nM.
In turn, `CC1(C)CC(=O)N([C@@H]2CCc3ccc(C(=O)N[C@@H]4c5cc(F)ccc5OC(C)(C)[C@H]4O)cc32)C(=N)N1` [Example 149, (3R)-N-[(3S,4R)-6-fluoro-3-hydroxy-2,2-dimethyl-chroman-4-yl]-3-(2-imino-4,4-dimethyl-6-oxo-hexahydropyrimidin-1-yl)indane-5-carboxamide] displayed an EC50 of 1.1 nM.
Molecule `CCC1(CC)CC(=O)N([C@@H]2CCOc3ccc(C(=O)NC(CO)c4ccccc4OC)cc32)C(=N)N1` (stereo partly drawn) [Example 150, (4R)-4-(4,4-diethyl-2-imino-6-oxo-hexahydropyrimidin-1-yl)-N-[2-hydroxy-1-(2-methoxyphenyl)ethyl]chromane-6-carboxamide] came in with an EC50 of 49 nM.
The molecule `CC[C@]1(C)CC(=O)N([C@@H]2CCOc3ccc(C(=O)NC4c5cc(F)ccc5OCC4O)cc32)C(=N)N1` (stereo partly drawn) [Example 151, (4R)-4-[(4R)-4-ethyl-2-imino-4-methyl-6-oxo-hexahydropyrimidin-1-yl]-N-(6-fluoro-3-hydroxy-chroman-4-yl)chromane-6-carboxamide] gave an EC50 of 5.4 nM.
`CCC1(CC)CC(=O)N([C@@H]2CCOc3ccc(C(=O)NC4c5ccccc5CC4(F)F)cc32)C(=N)N1` (stereo partly drawn) [Example 152, (4R)-4-(4,4-diethyl-2-imino-6-oxo-hexahydropyrimidin-1-yl)-N-(2,2-difluoroindan-1-yl)chromane-6-carboxamide] came in with an EC50 of 7.7 nM.

Values taken from patent US12350270B2, “Antimalarial agents” (Merck Sharp & Dohme LLC, priority 2019, dated 2025).
